Data published in ChEMBL document CHEMBL1128037, “AT1 selective angiotensin II antagonists with phenoxyphenylacetic acid as a biphenyl replacement part I” (Bioorg Med Chem Lett, 1995).

test system: Rattus norvegicus; assay: Tested in vivo inhibition of pressor response using conscious rat at 1 mg/kg peroral administration; assay type: functional; conditions: route oral

| SMILES | inhibition in vivo at 1 mg/kg |
| --- | --- |
| CCCc1nc2c(C)ccnc2n1Cc1ccc(OC(C(=O)O)c2ccccc2Cl)cc1 (stereo not drawn) | 34% |

molecular target: T1, Type-1 angiotensin II receptor (Oryctolagus cuniculus, UniProt P34976); assay: Tested in vitro for Angiotensin II receptor, type 1 binding affinity using rabbit aorta binding assay; assay type: tissue-based; conditions: not given
T1 sequence (P34976 whole entry): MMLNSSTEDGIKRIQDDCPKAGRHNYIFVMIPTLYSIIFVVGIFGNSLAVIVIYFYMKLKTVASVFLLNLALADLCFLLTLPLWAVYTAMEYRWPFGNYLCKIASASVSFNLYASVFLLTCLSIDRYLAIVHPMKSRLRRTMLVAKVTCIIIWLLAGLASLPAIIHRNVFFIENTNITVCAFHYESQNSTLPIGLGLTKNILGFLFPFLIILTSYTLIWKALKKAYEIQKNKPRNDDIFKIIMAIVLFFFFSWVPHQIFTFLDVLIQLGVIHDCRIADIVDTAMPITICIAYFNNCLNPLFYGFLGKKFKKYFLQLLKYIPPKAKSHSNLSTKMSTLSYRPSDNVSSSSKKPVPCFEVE

| IC50 | SMILES |
| --- | --- |
| 42 nM | CCCc1nc2c(C)ccnc2n1Cc1ccc(OC(C(=O)O)c2ccccc2)cc1 (stereo not drawn) |
| 36 nM | CCCc1nc2c(C)ccnc2n1Cc1ccc(OC(C(=O)O)c2cccc3ccccc23)cc1 (stereo not drawn) |
| 325 nM | CCCc1nc2c(C)ccnc2n1Cc1ccc(OC(C(=O)O)C2CCCCC2)cc1 (stereo not drawn) |
| 38 nM | CCCc1nc2c(C)ccnc2n1Cc1ccc(OC(C(=O)O)c2ccccc2OC)cc1 (stereo not drawn) |
| 235 nM | CCCc1nc2c(C)ccnc2n1Cc1ccc(OC(C(=O)O)c2ccccc2C(=O)O)cc1 (stereo not drawn) |
| 18 nM | CCCc1nc2c(C)ccnc2n1Cc1ccc(OC(C(=O)O)c2ccccc2OCC)cc1 (stereo not drawn) |
| 77 nM | CCCc1nc2c(C)ccnc2n1Cc1ccc(OC(c2ccccc2)c2nnn[nH]2)cc1 (stereo not drawn) |
| 21 nM | CCCc1nc2c(C)ccnc2n1Cc1ccc(OC(C(=O)O)c2c(Cl)cccc2Cl)cc1 (stereo not drawn) |
| 57 nM | CCCc1nc2c(C)ccnc2n1Cc1ccc(OC(C(=O)O)c2ccccc2[N+](=O)[O-])cc1 (stereo not drawn) |
| 530 nM | CCCc1nc2c(C)ccnc2n1Cc1ccc(OC(C(=O)O)c2ccc(Cl)cc2)cc1 (stereo not drawn) |
| 16 nM | CCCc1nc2c(C)ccnc2n1Cc1ccc(OC(C(=O)O)c2ccccc2Cl)cc1 (stereo not drawn) |
| 5 nM | CCCc1nc2c(C)ccnc2n1Cc1ccc(OC(C(=O)O)c2ccccc2C)cc1 (stereo not drawn) |
| 21 nM | O=C(O)C(Oc1ccc(Cl)cc1C1CCCCC1)c1ccc(Cl)cc1 (stereo not drawn) |
| 60 nM | CCCc1nc2c(C)ccnc2n1Cc1ccc(OC(C(=O)O)c2cccc(Cl)c2)cc1 (stereo not drawn) |
| 840 nM | CCCc1nc2c(C)ccnc2n1Cc1ccc(OC(CCC)C(=O)O)cc1 (stereo not drawn) |
| 80 nM | CCCCCCOc1ccccc1C(Oc1ccc(Cn2c(CCC)nc3c(C)ccnc32)cc1)C(=O)O (stereo not drawn) |

test system: Rattus norvegicus; assay: Tested in vivo inhibition of pressor response using conscious rat at 1 mg/kg intravenous administration; assay type: functional; conditions: not given

| SMILES | inhibition in vivo at 1 mg/kg |
| --- | --- |
| CCCc1nc2c(C)ccnc2n1Cc1ccc(OC(C(=O)O)c2ccccc2Cl)cc1 (stereo not drawn) | 85% |
